Experimental data taken from patent US20120252730A1, “PLATELET AGGREGATION INHIBITORS” (UNIVERSITY OF CHICAGO, priority 2009, published 2012).
Values belong to the molecule of their own block, whether it stands above or below them. Ends that are not written are not given here.

Legend:
αIIbβ3 CHO K1 cells [1] = assay: Cell adhesion assay: αIIbβ3 CHO K1 cells on SAMs presenting immobilized peptides; type: cell-based, human; settings: 0.5% peptide SAM; in presence of 300 μM cRGDFG
Experimental: Monolayers were prepared as described (Houseman, et al., 2003). Glass coverslips were sonicated for 30 minutes in deionized ultrafiltered (DIUF) water and then 30 minutes in ethanol and then dried under a stream of nitrogen. Titanium (4 nm) and then gold (29 nm) were evaporated onto the coverslips using an electron beam evaporator (Boc Edwards) at a rate of 0.05-0.10 nm/s and at a pressure of 1 μTorr. The gold-coated coverslips were immersed in an ethanolic solution of maleimide-terminated disulfide (1%) and tri(ethylene glycol)-terminated disulfide (99%) overnight at room temperature. The total disulfide concentration was 1 mM. The substrates were washed with DIUF water, ethanol and then dried under a stream of nitrogen.
The pcDNA3.1 vectors that express human αIIb or β3, respectively, have been described previously (see e.g., Litvinov et al. (2006) Biochemistry, 45: 4957-4964). CHO K1, BHK 21 and HT1080 cells were purchased from ATCC. All CHO cells were cultured at 37° C. and 5% CO2 using F12K medium supplemented with 10% FBS and pen/strep. […] CHO K1 cells were transfected with αIIb and β3 cDNA with FuGENE following the supplier's protocol. Transfected cells were selected with 1 mg/mL zeocin and 1 mg/mL geneticin.
(§1) Cysteine-terminated peptides were immobilized onto maleimide-presenting SAMs by adding 40 μL of 1 mM peptide solution to the biochip and incubating at 37° C. for 1 hour. Substrates were rinsed with DIUF water and ethanol and dried under a stream of nitrogen. αIIbβ3 CHO K1 cells were detached from culture plates with 1 mM EGTA/2 mM EDTA in PBS (phosphate-buffered saline), rinsed with serum-free F-12K medium, centrifuged and resuspended in serum-free F-12K medium supplemented with cRGDFG (SEQ ID NO: 12) (300 μM) and 1× penicillin/streptomycin. After 15-minute of incubation, cells (200,000/mL) were added to substrates in 24-well culture plates. After 2 hour incubation at 37° C. and 5% CO2, media was exchanged for F-12K medium supplemented with 10% FBS, 1× penicillin/streptomycin and cRGDFG (SEQ ID NO: 12) (300 μM). After 2 hours, the substrates were washed gently with warm PBS, and adherent cells were immediately fixed with 4% formaldehyde for 30 minutes, visualized with a 20× objective of a Zeiss Axiovert 200 inverted microscope, and photographed. For cell adhesion assays mediated by Ac-GXGDSC (SEQ ID NO: 26), αIIbβ3 CHO K1 cells were incubated on a 5×4 circle (1 mm diameter) array for 1 hour with serum-free F-12K medium supplemented with cRGDFG (SEQ ID NO: 12) (300 μM) and 1× penicillin/streptomycin, followed by media exchange to F-12K medium supplemented with 10% FBS, 1× penicillin/streptomycin and cRGDFG (SEQ ID NO: 12) (300 μM. The substrates were washed with warm PBS, and adherent cells were immediately fixed and permeabilized with 4% formaldehyde and 0.5% Triton-X for 30 minutes. Fixed cells were stained with DAPI, visualized and photographed with a 20× objective as described. The number of adherent cells per field of view was counted using Image J software. Cells were counted in at least three fields for each circle, and each experiment was repeated 3 times. The degree of adhesion is reported as a percentage of cells that adhere relative to control experiments with the peptide Ac-GRGDSC (SEQ ID NO: 28).
Monolayers were prepared that presented a mixture of maleimide groups and tri(ethylene glycol) groups with the former present at a density of 0.5% (relative to total alkanethiolate). The monolayers were treated with cysteine-terminated peptides to immobilize the ligands (FIG. 1A). In each case mass spectrometry was used to verify immobilization of the peptides in high yield (Su et al., 2002).
The adhesion and spreading of αIIbβ3 CHO K1 cells to monolayers presenting GRGDSC (SEQ ID NO: 11), HHLGGAKQAGDVC (SEQ ID NO: 21) and a mixture of both peptides was compared. […]

αIIbβ3 CHO K1 cells [2] = assay: Immunostaining of cytoskeletal structure of αIIbβ3 CHO K1 cells adherent to model substrates; type: cell-based, human; settings: monolayers presenting the peptide; four hours; anti-vinculin, phalloidin, DAPI
Description: αIIbβ3 CHO K1 cells were allowed to adhere and spread on substrates as described above. Substrates were washed gently with PBS, and fixed and permeabilized as described above. Cells were stained with monoclonal anti-vinculin IgG to visualize focal adhesions, phalloidin to visualize stress fibers and DAPI to visualize the nucleus. Substrates were rinsed thoroughly with PBS and mounted on microscope slides with Aqua Poly/Mount (PolySciences Inc.). Substrates were visualized with a 100× objective of a Zeiss Axiovert 200 inverted microscope, and photographed.
The assembly of focal adhesion and actin stress fibers of αIIbβ3 CHO K1 cells adhered to monolayers presenting GRGDSC (SEQ ID NO: 11), HHLGGAKQAGDVC (SEQ ID NO: 21) a mixture of both peptides, and adsorbed Fbg (FIGS. 3, E, F, G and H respectively) was compared. The αIIbβ3 CHO K1 cells were allowed to attach and spread on the monolayers for four hours, and then fixed the cells and probed with anti-vinculin IgG to visualize focal adhesions and with phalloidin-AF 488 to visualize actin stress fibers.

αIIbβ3 CHO K1 cells [3] = assay: Ac-GXGDSC peptide array cell adhesion, αIIbβ3 CHO K1 cells; type: cell-based, human; settings: 0.5% peptide spots; 300 μM cRGDFG
Experimental: as §1
To further assay the binding of peptide ligands to the […] integrin for XGD peptide ligands, an array was used to assess the adhesion of cells to peptides having the arginine residue substituted with each amino acid other than cysteine (e.g., A, D, E, F, G, H, I, K, L, M, N, P, Q, R, S, T, V, W, and Y). The library of Ac-GXGDSC (SEQ ID NO: 26) peptides was synthesized and immobilized in an array with each peptide occupying a 1 mm diameter region of the monolayer (FIG. 61). A suspension of αIIbβ3 CHO K1 cells was applied to the entire array and cells were allowed to attach to regions presenting the various peptides. The substrates were then rinsed and stained with DAPI, and the cells were counted to determine the relative efficiency of cell attachment to peptides in the library. […] Substitution with leucine and isoleucine were also active, though at a lower level.

αIIbβ3 CHO K1 cells [4] = assay: Blocking of αIIbβ3 CHO K1 cell adhesion to GRGDSC monolayer; type: cell-based, human; settings: PAC-1 antibody together with cyclic peptide inhibitor cRGDFG
Description: FIG. 2 depicts the results of FACS analyses and binding studies of a αIIbβ3 expressing CHO K1 cell line. […] Transfected αIIbβ3 CHO K1 cells express αIIbβ3 at the cell surface, as detected by anti-β3 and PAC-1 antibody (bottom) (the middle and right hand lanes show anti-β3 antibody and PAC-1 antibody binding, respectively). Panel B is a graph of the concentration of cRGDFG (SEQ ID NO: 12; where F is a D amino acid) versus adhesion of αIIbβ3 CHO K1 cells. The peptide cRGDFG (SEQ ID NO: 12), a cyclic peptide that specifically binds to α5 and αV integrins, inhibits CHO K1 cell adhesion to 0.5% GRGDSC (SEQ ID NO: 11) SAMs. Panels C-F are photomicrographs of cells adhering to GRGDSC (SEQ ID NO: 11).
CHO K1 cells were used that were transfected with the αIIbβ3 receptor, as described previously (Salsmann et al., 2005). Cells were transfected with pcDNA3.1 vectors that coded for αIIb and β3 using FuGENE6 and analyzed by FACS after labeling with the PAC-1 (anti-αIIbβ3) and H-96 (anti-β3) antibodies. Approximately 30% of the cells expressed the receptor (FIG. 2A). Because the CHO K1 cells also express αv and α5 integrins on their surfaces, adhesion experiments were performed in the presence of the cyclic peptide cRGDFG (SEQ ID NO: 12), where F is a D amino acid. […] All experiments that follow, unless stated otherwise, were performed in the presence of 300 μM cRGDFG (SEQ ID NO: 12).

[5] = target: T1, human αIIbβ3 integrin on transfected CHO K1 cells (human, UniProt P08514 32-1039; P05106 27-788); assay: adhesion of αIIbβ3 CHO cells to the peptide monolayer, 300 µM cRGDFG present
T1 construct: whole, on cells; CHO K1 cells transfected with human αIIb and β3 cDNA; about 30% of the cells expressed the receptor; also called platelet receptor; platelet integrin
Experimental: For cell adhesion assays mediated by Ac-GXGDSC (SEQ ID NO: 26), αIIbβ3 CHO K1 cells were incubated on a 5×4 circle (1 mm diameter) array for 1 hour with serum-free F-12K medium supplemented with cRGDFG (SEQ ID NO: 12) (300 μM) and 1× penicillin/streptomycin, followed by media exchange to F-12K medium supplemented with 10% FBS, 1× penicillin/streptomycin and cRGDFG (SEQ ID NO: 12) (300 μM. The substrates were washed with warm PBS, and adherent cells were immediately fixed and permeabilized with 4% formaldehyde and 0.5% Triton-X for 30 minutes. Fixed cells were stained with DAPI, visualized and photographed with a 20× objective as described. The number of adherent cells per field of view was counted using Image J software. Cells were counted in at least three fields for each circle, and each experiment was repeated 3 times. The degree of adhesion is reported as a percentage of cells that adhere relative to control experiments with the peptide Ac-GRGDSC (SEQ ID NO: 28).
CHO K1 cells were used that were transfected with the αIIbβ3 receptor, as described previously (Salsmann et al., 2005). Cells were transfected with pcDNA3.1 vectors that coded for αIIb and β3 using FuGENE6 and analyzed by FACS after labeling with the PAC-1 (anti-αIIbβ3) and H-96 (anti-β3) antibodies. Approximately 30% of the cells expressed the receptor (FIG. 2A). […]

[6] = target: T1, human αIIbβ3 integrin on transfected …; assay: soluble peptide (1 pM to 100 µM) inhibits adhesion of αIIbβ3 CHO K1 cells to peptide monolayers
Experimental: Suspensions of αIIbβ3 CHO K1 cells (100,000/mL) were incubated with cRGDFG (SEQ ID NO: 12) (300 μM) in serum-free F-12K medium with 1 mg/mL BSA (bovine serum albumin) and 1× penicillin/streptomycin for 15 minutes at 37° C. and 5% CO₂. These suspensions were then supplemented with soluble peptides at concentrations ranging from 1 pM to 100 μM and further incubated for 15 minutes at 37° C. and 5% CO₂. Cells were then added to monolayers and incubated at 37° C. and 5% CO₂ for 2 hours, then media was exchanged for F-12K medium supplemented with 10% FBS and 1× penicillin/streptomycin. The substrates were further incubated for 2 hours. The substrates were washed gently with warm PBS, and adherent cells were immediately fixed and permeabilized with 4% formaldehyde and 0.5% Triton-X for 30 minutes. Fixed cells were stained with DAPI, visualized and photographed with a 20× as described previously. The number of adherent cells per field of view was counted using Image J. Cells were counted in at least five fields for each substrate, and each experiment was repeated 3 times. The degree of inhibition is reported as a percentage of cells that adhere relative to control experiments in the absence of soluble peptide.
To verify that the two peptides interact with the same site on αIIbβ3, it was determined whether the peptides GRGDS (SEQ ID NO: 4), […] (SEQ ID NO: 1) and AGDV (SEQ ID NO: 22), in soluble form, could block the attachment of cells to the monolayers presenting these ligands. In these experiments identical suspensions of cells (100,000/mL) were first incubated in serum-free F-12K medium supplemented with cRGDFG (SEQ ID NO: 12) (300 μM) and with the soluble peptides in concentrations ranging from 1 pM to 100 μM and then applied the mixtures to monolayers presenting either the GRGDSC (SEQ ID NO: 11), […] (SEQ ID NO: 21), or AGDVC (SEQ ID NO: 17) peptide (SEQ ID NO: 17) (FIG. 5). Cells were allowed to attach for 2 hours, after which media was exchanged to 10% FBS F-12K medium (supplemented with cRGDFG (SEQ ID NO: 12)) and cultured for an additional 2 hours. […]

Molecule: GRGDSC (GRGDSC-NH2) [Cys-terminated fibrinogen RGD peptide immobilized on monolayer]
adhesion of αIIbβ3 CHO K1 cells to monolayer presenting the peptide (αIIbβ3 CHO K1 cells [1]): adhered | cytoskeletal structure and focal adhesions of adherent cells (αIIbβ3 CHO K1 cells [2]): well-developed cytoskeletal structures and mature focal adhesions along the perimeter

Molecule: GGRDGSC (scrambled peptide)
adhesion of αIIbβ3 CHO K1 cells to monolayer presenting the peptide (αIIbβ3 CHO K1 cells [1]): lack of cell attachment | cell adhesion on Ac-GXGDSC array relative to Ac-GRGDSC (αIIbβ3 CHO K1 cells [3]): did not adhere

Molecule: PAC-1
effect on adhesion of αIIbβ3 CHO K1 cells to monolayer presenting GRGDSC (αIIbβ3 CHO K1 cells [4]): prevented cell adhesion to the monolayer

B4: HHLGGAKQAGDVC (SEQ ID NO: 21), immobilized on a self-assembled monolayer (peptide)
peptide: HHLGGAKQAGDVC-NH2
modifications: not fully specified (residue 13); also: C-terminal Cys thiol linked to maleimide of monolayer
notes: also called 0.5% HHLGGAKQAGDVC SAM; γ peptide
binding result [5]: binds

B5: AGDV (SEQ ID NO: 22), soluble peptide (peptide)
peptide: AGDV-NH2
notes: also called soluble AGDV
binding result [6]: binds

Continued, values first:

binding result [5]: binds
B1: GRGDSC (SEQ ID NO: 11), immobilized on a self-assembled monolayer (peptide)
peptide: GRGDSC-NH2
modifications: not fully specified (residue 6); also: C-terminal Cys thiol linked to maleimide of monolayer
notes: also called 0.5% GRGDSC SAM

binding result [6]: binds
B2: GRGDS (SEQ ID NO: 4), soluble peptide (peptide)
peptide: GRGDS-NH2
notes: also called soluble GRGDS

binding result [6]: binds
B3: HHLGGAKQAGDV (SEQ ID NO: 1), soluble peptide (peptide)
peptide: HHLGGAKQAGDV-NH2
notes: Synthetic peptide; also called γ peptide
